Assay results taken from patent publication US7019109B2, “SSTR1-selective analogs” (The Salk Institute for Bilogical Studies, priority 2001, dated 2006).
Where two headings read alike, the source gives them in different places. *1 amine or outer side, *2 acyl side, *3 side chain or, on linkers, in order; H or OH if unused. Where a SMILES comes first, the peptide text is derived from it. Bridges are numbered along the chain shown (N, C = ends). [ ]: non-standard residue; d: D form. The star is where a group is joined. NMePhe(4-CH2NHiPr) = CN[C@@H](Cc1ccc(CNC(C)C)cc1)C(=O)O; Tyr(Nα-carbamoyl) = NC(=O)N[C@@H](Cc1ccc(O)cc1)C(=O)*; Phe(4-CH2NHiPr) = CC(C)NCc1ccc(C[C@H](N)C(=O)O)cc1; Tyr(3-I) = N[C@@H](Cc1ccc(O)c(I)c1)C(=O)O; X1 = NC(=O)N[C@@H](CS[*:2])C(=O)[*:1]; d2Nal = N[C@H](Cc1ccc2ccccc2c1)C(=O)O; X2 = NC(=O)N[C@H](CS[*:2])C(=O)[*:1]

What was measured:
Assay type in all cases: binding
human SSTR3 = target: T1, human SSTR3 (Homo sapiens, UniProt P32745); experiment: Displacement of 125I-[Leu8,D-Trp22,Tyr25]-SRIF-28 from cloned SSTR3 (receptor autoradiography)
T1 construct: expressed in transfected cells; host or cells: CHO-K1 cells and CCL39 cells
Protocol: (§1) Generally, recombinant cells expressing the receptor are washed and homogenized to prepare a crude protein homogenate that is frozen, embedded and then cut in 10–20 μm thin sections, as known in this art. Candidate substances, such as potential SRIF agonists and antagonists, are incubated with the tissue sections, and the interaction between the candidate substance and the receptor polypeptide is monitored.
(§2) Receptor binding assays are performed on cloned SRIF receptors as generally set forth in Reubi, J. C. et al., J. Clin. Endocrinol. […] Med. 2000, 27, 273–282.
(§3) In vitro Bioassay: The various somatostatin analogs are tested in vitro for their ability to bind to isolated cloned receptors expressed on CHO-K1 cells and CCL39 cells. CHO-K1 cells are grown in Ham's F-12 medium, and CCL39 cells are grown in Dulbecco's modified Eagle's medium/Ham's F-12(1:1) mix, supplemented with 10% fetal bovine serum, 100 U/ml penicillin and 100 μg/ml streptomycin, in humidified air containing 5% CO2 at 37° C.
(§4) Cells are washed and prepared to produce homogenates as described in detail in Reubi, J. C. et al, Eur. J. Nucl. Med. 2000, 27, 273–282.
(§5) Receptor autoradiography is performed on 20 μm thick cryostat sections of the membrane pellets, mounted on microscope slides, and then stored at −20° C. […] Increasing concentrations of the unlabeled peptide are used ranging from 0.1–1000 nM. […] IC50 values are calculated after quantification of the data using a computer-assisted image processing system as known in this art.

human SSTR5 = target: T2, human SSTR5 (Homo sapiens, UniProt P35346); experiment: Displacement of 125I-[Leu8,D-Trp22,Tyr25]-SRIF-28 from cloned SSTR5 (receptor autoradiography)
T2 construct: expressed in transfected cells; host or cells: CHO-K1 cells and CCL39 cells
Protocol: as §1, §2, §3, §4
(§6) Receptor autoradiography is performed on 20 μm thick cryostat sections of the membrane pellets, mounted on microscope slides, and then stored at −20° C. […] […] […] IC50 values are calculated after quantification of the data using a computer-assisted image processing system as known in this art.

human SSTR1 = target: T3, human SSTR1 (Homo sapiens, UniProt P30872); experiment: Displacement of 125I-[Leu8,D-Trp22,Tyr25]-SRIF-28 from cloned SSTR1 (receptor autoradiography)
T3 construct: expressed in transfected cells; host or cells: CHO-K1 cells and CCL39 cells
Protocol: as §1, §2, §3, §4, §5

human SSTR4 = target: T4, human SSTR4 (Homo sapiens, UniProt P31391); experiment: Displacement of 125I-[Leu8,D-Trp22,Tyr25]-SRIF-28 from cloned SSTR4 (receptor autoradiography)
T4 construct: expressed in transfected cells; host or cells: CHO-K1 cells and CCL39 cells
Protocol: as §1, §2, §3, §4, §5

human SSTR2 = target: T5, human SSTR2 (Homo sapiens, UniProt P30874); experiment: Displacement of 125I-[Leu8,D-Trp22,Tyr25]-SRIF-28 from cloned SSTR2 (receptor autoradiography)
T5 construct: expressed in transfected cells; host or cells: CHO-K1 cells and CCL39 cells
Protocol: as §1, §2, §3, §4, §6

[1] = inhibition of radioligand binding of 125I-[Leu8,D-Trp22,Tyr24]SRIF-28, cloned receptor, table, read-out: IC50 (nM) mSSTR5
[2] = read-out: concentration below which no binding to SSTR5
[3] = displacement of iodinated SRIF-28 radioligand, read-out: IC50 / binding affinity at human SSTR1
[4] = inhibition of radioligand binding of 125I-[Leu8,D-Trp22,Tyr24]SRIF-28, cloned receptor, table, read-out: IC50 (nM) mSSTR1
[5] = inhibition of radioligand binding of 125I-[Leu8,D-Trp22,Tyr24]SRIF-28, cloned receptor, table, read-out: IC50 (nM) mSSTR2
[6] = read-out: concentration below which no binding to SSTR2
[7] = inhibition of radioligand binding of 125I-[Leu8,D-Trp22,Tyr24]SRIF-28, cloned receptor, table, read-out: IC50 (nM) mSSTR4

T3 sequence (P30872 whole entry): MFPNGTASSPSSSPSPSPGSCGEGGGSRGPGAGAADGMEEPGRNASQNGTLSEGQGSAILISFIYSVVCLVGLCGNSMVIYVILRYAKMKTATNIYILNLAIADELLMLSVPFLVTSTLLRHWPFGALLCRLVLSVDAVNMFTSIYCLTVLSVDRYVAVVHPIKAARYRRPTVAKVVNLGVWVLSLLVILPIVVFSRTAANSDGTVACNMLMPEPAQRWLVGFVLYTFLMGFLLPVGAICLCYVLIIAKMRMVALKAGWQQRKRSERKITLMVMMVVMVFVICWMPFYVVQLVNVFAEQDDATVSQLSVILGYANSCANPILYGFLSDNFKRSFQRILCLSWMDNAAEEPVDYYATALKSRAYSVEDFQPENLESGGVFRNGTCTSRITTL
T4 sequence (P31391 whole entry): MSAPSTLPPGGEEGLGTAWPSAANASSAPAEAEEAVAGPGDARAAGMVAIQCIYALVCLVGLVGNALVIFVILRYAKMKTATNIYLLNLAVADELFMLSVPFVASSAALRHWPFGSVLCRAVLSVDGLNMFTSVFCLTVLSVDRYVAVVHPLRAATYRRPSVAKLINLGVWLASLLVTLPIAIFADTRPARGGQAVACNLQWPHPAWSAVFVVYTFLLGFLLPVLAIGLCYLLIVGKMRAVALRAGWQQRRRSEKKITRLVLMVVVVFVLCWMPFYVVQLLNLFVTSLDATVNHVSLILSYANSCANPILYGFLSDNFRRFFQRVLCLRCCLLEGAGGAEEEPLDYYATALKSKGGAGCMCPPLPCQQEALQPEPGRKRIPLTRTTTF
T5 sequence (P30874 whole entry): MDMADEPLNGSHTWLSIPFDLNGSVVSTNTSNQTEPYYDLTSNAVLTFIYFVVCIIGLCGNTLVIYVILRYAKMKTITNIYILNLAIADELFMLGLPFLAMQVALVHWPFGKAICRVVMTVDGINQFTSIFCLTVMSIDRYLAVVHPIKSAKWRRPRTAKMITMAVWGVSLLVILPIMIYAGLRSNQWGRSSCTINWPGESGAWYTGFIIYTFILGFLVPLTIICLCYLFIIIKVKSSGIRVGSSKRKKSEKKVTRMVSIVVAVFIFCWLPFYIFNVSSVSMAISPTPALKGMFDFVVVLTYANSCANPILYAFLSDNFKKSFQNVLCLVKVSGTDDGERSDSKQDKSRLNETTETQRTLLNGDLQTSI
T2 sequence (P35346 whole entry): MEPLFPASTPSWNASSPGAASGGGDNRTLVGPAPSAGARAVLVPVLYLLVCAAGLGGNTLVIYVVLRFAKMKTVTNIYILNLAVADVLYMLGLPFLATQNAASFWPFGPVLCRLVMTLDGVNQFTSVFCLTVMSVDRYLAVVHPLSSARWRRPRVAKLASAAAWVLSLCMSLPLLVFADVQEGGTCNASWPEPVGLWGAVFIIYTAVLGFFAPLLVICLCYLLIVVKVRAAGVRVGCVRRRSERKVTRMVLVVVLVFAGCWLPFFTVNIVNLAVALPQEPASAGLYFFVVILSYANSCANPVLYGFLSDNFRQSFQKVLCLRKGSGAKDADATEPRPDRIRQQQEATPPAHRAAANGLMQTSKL
T1 sequence (P32745 whole entry): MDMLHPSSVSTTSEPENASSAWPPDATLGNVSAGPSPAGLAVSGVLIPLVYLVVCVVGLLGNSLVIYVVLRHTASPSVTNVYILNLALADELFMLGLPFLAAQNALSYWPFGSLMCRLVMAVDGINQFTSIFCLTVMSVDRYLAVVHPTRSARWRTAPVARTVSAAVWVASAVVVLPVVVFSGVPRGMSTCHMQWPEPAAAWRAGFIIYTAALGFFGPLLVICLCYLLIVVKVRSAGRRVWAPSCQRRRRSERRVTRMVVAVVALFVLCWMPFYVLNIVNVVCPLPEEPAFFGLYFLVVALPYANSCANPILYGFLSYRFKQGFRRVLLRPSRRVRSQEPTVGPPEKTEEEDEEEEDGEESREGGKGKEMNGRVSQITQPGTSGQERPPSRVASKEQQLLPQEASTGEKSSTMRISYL

| SMILES | IC50 (human SSTR3; read-out: IC50 (nM) mSSTR3) [nM] | IC50 (human SSTR1; [3]) [nM] | IC50 (human SSTR1; [4]) [nM] | IC50 (human SSTR4; read-out: IC50 (nM) mSSTR4) [nM] | IC50 (human SSTR5; read-out: IC50 (nM) mSSTR5) [nM] | IC50 (human SSTR2; read-out: IC50 (nM) mSSTR2) [nM] | other results |
| --- | --- | --- | --- | --- | --- | --- | --- |
| CC(C)NCc1ccc(C[C@H]2C(=O)N[C@@H]([C@@H](C)O)C(=O)N[C@@H](Cc3ccc(O)cc3)C(=O)N[C@@H]([C@@H](C)O)C(=O)N[C@@H](CO)C(=O)N[C@H](C(=O)O)CSSC[C@H](N)C(=O)N[C@@H](CCCCN)C(=O)N[C@@H](Cc3ccccc3)C(=O)N[C@@H](Cc3ccccc3)C(=O)N[C@H](Cc3c[nH]c4ccccc34)C(=O)N2C)cc1 [Peptide No. 2, (cyclo)H-Cys-Lys-Phe-Phe-D-Trp-N^αMeIAmp-Thr-Tyr-Thr-Ser-Cys-OH] (H-CKFF[dW][NMePhe(4-CH2NHiPr)]TYTSC-OH; disulfide 1-11) | > 1000 | ~6.1 | 7.2 | > 1000 |  |  | binding to SSTR3, in words (human SSTR3; Peptide No. 27 iodinated): does not bind strongly; effect on binding of the SRIF-28 radioligand to human SSTR3 (human SSTR3; at concentrations of 100 nM): minimal effects; effect on binding of the SRIF-28 radioligand to human SSTR5 (human SSTR5; at concentrations of 100 nM): minimal effects; IC50 (human SSTR5; [1]): > 10000 nM; IC50 (human SSTR5; [2]): > 10000 nM; binding to SSTR4, in words (human SSTR4; Peptide No. 27 iodinated): does not bind strongly; effect on binding of the SRIF-28 radioligand to human SSTR4 (human SSTR4; at concentrations of 100 nM): minimal effects; effect on binding of the SRIF-28 radioligand to human SSTR2 (human SSTR2; at concentrations of 100 nM): minimal effects; IC50 (human SSTR2; [5]): > 10000 nM; IC50 (human SSTR2; [6]): > 10000 nM |
| CC(C)NCc1ccc(C[C@H]2C(=O)N[C@@H]([C@@H](C)O)C(=O)N[C@@H](Cc3ccc(O)cc3)C(=O)N[C@@H]([C@@H](C)O)C(=O)N[C@@H](CO)C(=O)N[C@H](C(=O)O)CSSC[C@H](N)C(=O)N[C@@H](CCCCN)C(=O)N[C@@H](Cc3ccccc3)C(=O)N[C@@H](Cc3ccccc3)C(=O)N[C@H](Cc3ccc4ccccc4c3)C(=O)N2C)cc1 [Peptide No. 9A, (cyclo)H-Cys-Lys-Phe-Phe-D-2Nal-N^αMeIAmp-Thr-Tyr-Thr-Ser-Cys-OH] (H-CKFF[d2Nal][NMePhe(4-CH2NHiPr)]TYTSC-OH; disulfide 1-11) |  | ~21 | 24.5 |  |  |  | IC50 (human SSTR3; inhibition of radioligand binding of 125I-[Leu8,D-Trp22,Tyr24]SRIF-28, cloned receptor, table, read-out: IC50 (nM) mSSTR3): > 1000 nM; IC50 (human SSTR3; read-out: concentration below which no binding to SSTR3): > 1000 nM; IC50 (human SSTR5; [1]): > 10000 nM; IC50 (human SSTR5; [2]): > 10000 nM; IC50 (human SSTR4; [7]): > 1000 nM; IC50 (human SSTR4; read-out: concentration below which no binding to SSTR4): > 10000 nM; IC50 (human SSTR2; [5]): > 10000 nM; IC50 (human SSTR2; [6]): > 10000 nM |
| CC(C)NCc1ccc(C[C@H]2C(=O)N[C@@H]([C@@H](C)O)C(=O)N[C@@H](Cc3ccc(O)cc3)C(=O)N[C@@H]([C@@H](C)O)C(=O)N[C@@H](CO)C(=O)N[C@H](C(=O)O)CSSC[C@H](NC(N)=O)C(=O)N[C@@H](CCCCN)C(=O)N[C@@H](Cc3ccccc3)C(=O)N[C@@H](Cc3ccccc3)C(=O)N[C@H](Cc3c[nH]c4ccccc34)C(=O)N2C)cc1 [Peptide No. 12, (cyclo)CbmCys-Lys-Phe-Phe-D-Trp-N^αMeIAmp-Thr-Tyr-Thr-Ser-Cys-OH] (KFF[dW][NMePhe(4-CH2NHiPr)]TYTSC-OH; linker N-10 via X1) | > 1000 |  | 43 | > 1000 | > 10000 | > 10000 | binding strength and selectivity for SSTR1, in words (human SSTR1; Peptide No. 27 and 2A after iodination): good selectivity with good binding strength |
| CC(C)NCc1ccc(C[C@@H]2NC(=O)[C@@H](Cc3c[nH]c4ccccc34)NC(=O)[C@H](Cc3ccccc3)NC(=O)[C@H](Cc3ccccc3)NC(=O)[C@H](CCCCN)NC(=O)[C@@H](NC(N)=O)CSSC[C@@H](C(=O)O)NC(=O)[C@H](CO)NC(=O)[C@H]([C@@H](C)O)NC(=O)[C@H](Cc3ccc(O)cc3)NC(=O)[C@H]([C@@H](C)O)NC2=O)cc1 [Peptide No. 12A, (cyclo)CbmCys-Lys-Phe-Phe-D-Trp-IAmp-Thr-Tyr-Thr-Ser-Cys-OH] (KFF[dW][Phe(4-CH2NHiPr)]TYTSC-OH; linker N-10 via X1) | > 1000 | 8.1 |  | > 1000 | > 1000 | > 10000 |  |
| CC(C)NCc1ccc(C[C@@H]2NC(=O)[C@@H](Cc3c[nH]c4ccccc34)NC(=O)[C@H](Cc3ccccc3)NC(=O)[C@H](Cc3ccccc3)NC(=O)[C@H](CCCCN)NC(=O)[C@H](NC(N)=O)CSSC[C@@H](C(=O)O)NC(=O)[C@H](CO)NC(=O)[C@H]([C@@H](C)O)NC(=O)[C@H](Cc3ccc(O)cc3)NC(=O)[C@H]([C@@H](C)O)NC2=O)cc1 [Peptide No. 12C, (cyclo)CbmD-Cys-Lys-Phe-Phe-D-Trp-IAmp-Thr-Tyr-Thr-Ser-Cys-OH] (KFF[dW][Phe(4-CH2NHiPr)]TYTSC-OH; linker N-10 via X2) | > 1000 |  | 17.4 | > 10000 | > 1000 | > 10000 |  |
| CC(C)NCc1ccc(C[C@H]2C(=O)N[C@@H]([C@@H](C)O)C(=O)N[C@@H](Cc3ccc(O)c(I)c3)C(=O)N[C@@H]([C@@H](C)O)C(=O)N[C@@H](CO)C(=O)N[C@H](C(=O)O)CSSC[C@H](NC(N)=O)C(=O)N[C@@H](CCCCN)C(=O)N[C@@H](Cc3ccccc3)C(=O)N[C@@H](Cc3ccccc3)C(=O)N[C@H](Cc3c[nH]c4ccccc34)C(=O)N2C)cc1 [Peptide No. 12D, (cyclo)CbmCys-Lys-Phe-Phe-D-Trp-N^αMeIAmp-Thr-ITyr-Thr-Ser-Cys-OH] (KFF[dW][NMePhe(4-CH2NHiPr)]T[Tyr(3-I)]TSC-OH; linker N-10 via X1) | > 1000 |  | 8.5 | 700 | > 1000 | > 1000 |  |
| CC(C)NCc1ccc(C[C@H]2C(=O)N[C@@H]([C@@H](C)O)C(=O)N[C@@H](Cc3ccccc3)C(=O)N[C@@H]([C@@H](C)O)C(=O)N[C@@H](CO)C(=O)N[C@H](C(=O)O)CSSC[C@H](N)C(=O)N[C@@H](CCCCN)C(=O)N[C@@H](Cc3ccccc3)C(=O)N[C@@H](Cc3ccccc3)C(=O)N[C@H](Cc3c[nH]c4ccccc34)C(=O)N2C)cc1 [Peptide No. 13, (cyclo)H-Cys-Lys-Phe-Phe-D-Trp-N^αMeIAmp-Thr-Phe-Thr-Ser-Cys-OH] (H-CKFF[dW][NMePhe(4-CH2NHiPr)]TFTSC-OH; disulfide 1-11) | 610 | ~8.7 | 8.7 | 200 | > 10000 | > 10000 |  |
| CC(C)NCc1ccc(C[C@@H]2NC(=O)[C@@H](Cc3c[nH]c4ccccc34)NC(=O)[C@H](Cc3ccccc3)NC(=O)[C@H](Cc3ccccc3)NC(=O)[C@H](CCCCN)NC(=O)[C@@H](NC(=O)[C@H](Cc3ccc(O)cc3)NC(N)=O)CSSC[C@@H](C(=O)O)NC(=O)[C@H](CO)NC(=O)[C@H]([C@@H](C)O)NC(=O)[C@H](Cc3ccccc3)NC(=O)[C@H]([C@@H](C)O)NC2=O)cc1 [Peptide No. 14A, (cyclo)CbmTyr-Cys-Lys-Phe-Phe-D-Trp-IAmp-Thr-Phe-Thr-Ser-Cys-OH] ({Tyr(Nα-carbamoyl)}-CKFF[dW][Phe(4-CH2NHiPr)]TFTSC-OH; disulfide 1-11) | 500 |  |  |  | > 1000 | > 10000 | IC50 (human SSTR1; unit inferred, read-out: IC50 / binding affinity at SSTR1, unit inferred): 15 nM; IC50 (human SSTR4; [7]): > 1000 nM |
